# Reference: US6964759B2, “Formulations containing an anticholinergic drug for the treatment of chronic obstructive pulmonary disease” (Chiesi Farmaceutici S.p.A., priority 2000, dated 2005)
# Key:
# [1] = inhaled single doses of at least 160 μg; cited from earlier work
# [2] = Aerodynamic particle size distribution and delivery performance, Andersen Cascade Impactor; assay type: physicochemical
# Protocol: The aerodynamic particle size distribution of each tested formulation was characterized using a Multistage Cascade Impactor according to the procedure described in European Pharmacopoeia 2nd edition, 1995, part V.5.9.1, pages 15-17. In this specific case, an Andersen Cascade Impactor (ACI) was used.
# Results were obtained as a mean of 3-4 cans. For each device, 5-25 cumulative actuations were carried out after discarding the first 5.
# Deposition of the drug on each ACI plate was determined by high pressure liquid chromatography (HPLC). Mean metered dose was calculated from the cumulative deposition in the actuator and ACI (stages); mean delivered dose was calculated from the cumulative deposition in the ACI. Mean respirable dose (fine particle dose) was obtained from the deposition on Stages 3 to filter corresponding to particles ≦4.71 μm, divided by the number of actuations per experiment.
# MAD and associated GSD (standard geometric deviation) values were obtained from probit transformation of cumulative percent undersize—log (ACI effective cut-off particle size diameter) and linear regression analysis of the resultant data, (Ph. Eur. Supp 1999).
# The use of a metering chamber volume of 100 μl allows a 320 μg strength variant of the 160 μg formulation.
# The delivery characteristics of the formulation in cans equipped with standard Bespack BK 360 actuators with 0.3 mm orifice diameter and a metering chamber volume of 50 μl are reported in Table 2. The use of a metering chamber volume of 100 μl allows a 160 μg strength variant of the 80 μg formulation.
# The relevant parameters were determined as described in Example 1.
# [3] = nominal dose 20 μg, HFA 134a, 13% ethanol, 1% glycerol
# [4] = nominal dose 20 μg, HFA 134a, 13% ethanol, 1% glycerol, 0.3 mm orifice, 50 μl chamber
# [5] = nominal dose 40 μg, HFA 134a, 13% ethanol, 1% glycerol
# [6] = nominal dose 40 μg, HFA 134a, 13% ethanol, 1% glycerol, 0.3 mm orifice, 50 μl chamber
# [7] = nominal dose 80 μg, HFA 134a, 13% ethanol, 1% glycerol
# [8] = nominal dose 80 μg, HFA 134a, 13% ethanol, 1% glycerol, 0.3 mm orifice, 50 μl chamber
# [9] = nominal dose 80 μg, HFA 134a, 19% ethanol, without the low volatility component
# [10] = nominal dose 160 μg, HFA 134a, 13% ethanol, 1% glycerol
# [11] = nominal dose 160 μg, HFA 134a, 13% ethanol, 1% glycerol, 0.3 mm orifice, 50 μl chamber
# [12] = nominal dose 160 μg, HFA 134a, 19% ethanol, without the low volatility component
# [13] = nominal dose 320 μg, HFA 134a, 13% ethanol, 1% glycerol
# [14] = nominal dose 320 μg, HFA 134a, 13% ethanol, 1% glycerol, 0.3 mm orifice, 100 μl chamber
structure (smiles),measurement,setting,value
CC(C)[N+]1(C)[C@@H]2CC[C@H]1CC(OC(=O)C(CO)c1ccccc1)C2.[Br-] (stereo partly drawn) [ipratropium bromide],Duration of action,[1],up to 12 hours
same,MAD,"[2]; Example 1 formulations with glycerol, over all nominal doses",2.2-2.9 μm
same,MAD,"[2]; formulation containing an ethanol level of 19% by weight, nominal doses 80 and 160 μg",1.2-1.3 μm
same,GSD,[2]; [3],2.1 ± 0.8
same,MAD,[2]; [3],2.4 ± 0.3 μm
same,Respirable fraction,[2]; [3],33.3 ± 3.8%
same,Delivered dose,[2]; [4],18.8 ± 1.6 µg
same,Metered dose,[2]; [4],20.6 ± 1.6 µg
same,Respirable dose,"[2]; nominal dose 20 μg, particles less than 4.7 μm, HFA 134a, 13% ethanol, 1% glycerol",6.8 ± 1.1 µg
same,GSD,[2]; [5],2.1 ± 0.1
same,MAD,[2]; [5],2.2 ± 0.1 μm
same,Respirable fraction,[2]; [5],31.5 ± 3.8%
same,Delivered dose,[2]; [6],38.7 ± 1.9 µg
same,Metered dose,[2]; [6],42.2 ± 1.8 µg
same,Respirable dose,"[2]; nominal dose 40 μg, particles less than 4.7 μm, HFA 134a, 13% ethanol, 1% glycerol",11.7 ± 1.2 µg
same,GSD,[2]; [7],2.2 ± 0.1
same,MAD,[2]; [7],2.7 ± 0.3 μm
same,Respirable fraction,[2]; [7],32.0 ± 6.1%
same,Delivered dose,[2]; [8],72.7 ± 0.6 µg
same,Metered dose,[2]; [8],78.5 ± 0.4 µg
same,Delivered dose,[2]; [9],70.0 ± 1.0 µg
same,GSD,[2]; [9],4.3 ± 0.4
same,MAD,[2]; [9],1.2 ± 0.1 μm
same,Respirable dose,[2]; [9],20.0 ± 1.3 µg
same,Respirable fraction,[2]; [9],28.7 ± 1.5%
same,Metered dose,"[2]; nominal dose 80 μg, HFA 134a, 19% ethanol, without the low volatility component, 0.3 mm orifice, 50 μl chamber",76.6 ± 1.6 µg
same,Respirable dose,"[2]; nominal dose 80 μg, particles less than 4.7 μm, HFA 134a, 13% ethanol, 1% glycerol",23.3 ± 4.5 µg
same,GSD,[2]; [10],2.3 ± 0.1
same,MAD,[2]; [10],2.5 ± 0.2 μm
same,Respirable fraction,[2]; [10],30.4 ± 3.5%
same,Delivered dose,[2]; [11],149.2 ± 10.7 µg
same,Metered dose,[2]; [11],161.1 ± 12.5 µg
same,Delivered dose,[2]; [12],144.2 ± 1.7 µg
same,GSD,[2]; [12],6.2 ± 0.2
same,MAD,[2]; [12],1.3 ± 0.2 μm
same,Respirable dose,[2]; [12],31.4 ± 1.3 µg
same,Respirable fraction,[2]; [12],21.8 ± 1.1%
same,Metered dose,"[2]; nominal dose 160 μg, HFA 134a, 19% ethanol, without the low volatility component, 0.3 mm orifice, 100 μl chamber",158.5 ± 2.0 µg
same,Respirable dose,"[2]; nominal dose 160 μg, particles less than 4.7 μm, HFA 134a, 13% ethanol, 1% glycerol",45.2 ± 2.5 µg
same,GSD,[2]; [13],2.6 ± 0.1
same,MAD,[2]; [13],2.9 ± 0.2 μm
same,Respirable fraction,[2]; [13],25.2 ± 1.2%
same,Delivered dose,[2]; [14],290.5 ± 1.9 µg
same,Metered dose,[2]; [14],321.4 ± 2.0 µg
same,Respirable dose,"[2]; nominal dose 320 μg, particles less than 4.7 μm, HFA 134a, 13% ethanol, 1% glycerol",73.2 ± 3.0 µg
